Reference: publication PMC5503262, “Solution conformations of Zika NS2B-NS3pro and its inhibition by natural products from edible plants” (PLoS ONE, 2017)
Values joined by “and” are separate entries in the source; they are usually repeats but may differ in a detail not shown here. Equal values may be shown once. “Also recorded” adds a separate entry of the source. Read-outs that look alike come from different tables or passages of the source.

Key:
[1] = biological target: T1, Zika NS2B-NS3pro (unlinked complex) (Zika virus, UniProt A0A024B7W1); experiment: Inhibition of unlinked Zika NS2B-NS3pro, fluorogenic substrate Bz-nKRR-AMC; type: biochemical; conditions: for inhibitory activity (in words): compound concentration up to 500 μM; for Inhibition at 500 μM: initial screening, compound 500 μM, protease 50 nM; for Inhibition at 500 μM / IC50: Bz-nKRR-AMC 250 μM
T1 construct: DNA fragments encoding the isolated NS3 (14–185) and NS2B (48–100) with the transmembrane regions removed; His-tag (cleaved yes); made in house; host or cells: Escherichia coli BL21 (DE3) Star
Method: Due to the urgency to fight ZIKV infection, we attempted to screen the inhibitors of Zika NS2B-NS3pro from natural products rich in edible plants. To better reflect the situation in vivo, here we selected the unlinked Zika NS2B-NS3pro complex for screening. However as most natural products are largely insoluble in aqueous buffers, we have assessed effects of DMSO and glycerol on the conformations (Fig 1E and 1F) as well as on catalytic parameters (Table 1). Consequently, 50 mM Tris buffer at pH 8.5 + 20% Glycerol was utilized as the screening buffer as it could dissolve all natural products in the present study but has no significant effect on the conformation of Zika NS2B-NS3pro (Fig 1F).
To allow comparison with the NS2B-NS3pro complexes of four Dengue serotypes (17), we selected three fluorophore-tagged substrates previously used (17): namely Bz-Nle-Lys-Arg-Arg-AMC, Boc-Gly-Arg-Arg-AMC and Boc-Gly-Lys-Arg-AMC (Bachem AG, Bubendorf), which were dissolved in dimethyl sulfoxide for preparing stock solutions (100 mM). All enzymatic experiments were performed in triplicate and data are presented as mean ± SD, while IC50, Km and Ki were obtained by fitting with GraphPad Prism 7.0 [61].
All natural products were purchased from Sigma-Aldrich, which are all HPLC purified. After optimization of buffer conditions, here, we selected 50 mM Tris-HCl buffer at pH 8.5 in the presence of 20% glycerol which could dissolve all natural products. Briefly, for the initial screening, the Zika protease at 50 nM was preincubated for 30 min with different compounds at final concentrations of 5 and 500 μM dissolved in 1 μl DMSO, followed by adding Bz-nKRR-AMC to 250 μM to initiate reaction. Only the compounds showing significant inhibitions at both concentrations were subjected to further determination of IC50 and Ki.
For Ki determination, the assay was performed with different final concentrations of the inhibitors and substrate. Briefly, the Zika protease at 50 nM was preincubated with the inhibitor at different concentrations for 30 min at 37°C. Subsequently, the reaction was initiated by addition of the corresponding concentration series of the substrate. All measurements were performed in triplicate and data are presented as mean ± SD. The Ki was obtained by fitting in the non-competitive inhibition mode with GraphPad Prism 7.0, with an equation: Vmaxinh = Vmax/(1+I/Ki), while I is the concentration of inhibitor [61].

linked Zika NS2B-NS3pro = conditions: linked enzyme, assay buffer pH 7; cited from earlier work
Dengue-2 NS2B-NS3pro = biological target: Dengue-2 NS2B-NS3pro; design: method as in PMID 25564380; conditions: allosteric inhibition, previously characterized; cited from earlier work
[2] = 50 mM Tris-HCl pH 8.5 + 20% glycerol
[3] = IC50, protease 50 nM preincubated 30 min at 37°C, 50 mM Tris-HCl pH 8.5 + 20% glycerol, mean ± SD, triplicate
[4] = Ki, non-competitive fit, protease 50 nM preincubated 30 min at 37°C, 50 mM Tris-HCl pH 8.5 + 20% glycerol, mean ± SD, triplicate
[5] = protease 50 nM preincubated 30 min at 37°C, 50 mM Tris-HCl pH 8.5 + 20% glycerol, mean ± SD, triplicate, read-out: IC50
[6] = non-competitive fit, protease 50 nM preincubated 30 min at 37°C, 50 mM Tris-HCl pH 8.5 + 20% glycerol, mean ± SD, triplicate, read-out: Ki

T1 sequence (A0A024B7W1 1420-1472): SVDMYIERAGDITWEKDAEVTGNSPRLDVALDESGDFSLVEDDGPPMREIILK
T1 sequence (A0A024B7W1 1516-1687): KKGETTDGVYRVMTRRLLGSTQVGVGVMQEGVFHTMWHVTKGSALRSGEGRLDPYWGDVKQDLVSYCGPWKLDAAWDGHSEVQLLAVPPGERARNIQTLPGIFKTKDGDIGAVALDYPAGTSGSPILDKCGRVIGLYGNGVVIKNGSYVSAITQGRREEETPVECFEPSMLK

Structure (SMILES) | inhibitory activity (in words) [1] | Inhibition at 500 μM [1, 2] | IC50 [1, 3] [µM] | IC50 [1, 5] | Ki [1, 6] | also measured
Oc1cc(O)c2c(c1)O[C@H](c1ccc(O)c(O)c1)[C@@H](O)C2 [Catechin] | inactive | No |  |  |  | inhibitory activity (in words) ([1]; listed as Catechine): no inhibitory activity was detected
O=c1cc(-c2ccc(O)cc2)oc2cc(O)cc(O)c12 [Apigenin] |  | Yes | 56.3 ± 0.9 | 56.3 µM |  | Ki [1, 4]: 34 µM
COc1cc(/C=C/C(=O)CC(=O)/C=C/c2ccc(O)c(OC)c2)ccc1O [Curcumin] |  | Yes |  | 3.45 µM and 3.5 µM | 2.61 µM and 2.6 µM | 
COc1cc(-c2oc3cc(O)cc(O)c3c(=O)c2O)ccc1O [Isorhamnetin] |  | Yes | 15.5 |  |  | Ki [1, 4]: 6.22 µM and 6.2 µM
O=c1c(-c2ccc(O)cc2)coc2cc(O)ccc12 [Daidzein] | no inhibitory activity was detected; also recorded: inactive | No |  |  |  | 
Oc1ccc(/C=C/c2cc(O)cc(O)c2)cc1 [Resveratrol] | no inhibitory effect was detected; also recorded: no detectable inhibitory activity | No |  |  |  | 
O=c1c(O)c(-c2cc(O)c(O)c(O)c2)oc2cc(O)cc(O)c12 [Myricetin] |  | Yes | 1.26 | 1.3 ± 0.1 µM | 0.8 ± 0.1 µM | Ki (linked Zika NS2B-NS3pro): 8.9 µM; Ki ([1]; Ki, non-competitive mode, unlinked enzyme, pH 8.5): 0.77 µM; Ki (Dengue-2 NS2B-NS3pro): 4.7 µM
O=c1c(O)c(-c2ccc(O)c(O)c2)oc2cc(O)cc(O)c12 [Quercetin] |  | Yes |  | 2.42 µM and 2.4 µM | 1.12 µM and 1.1 µM | Ki (Dengue-2 NS2B-NS3pro): 20.7 µM
O=c1cc(-c2ccc(O)c(O)c2)oc2cc(O)cc(O)c12 [Luteolin] |  | Yes |  | 2.7 ± 0.3 µM | 1.4 ± 0.1 µM | 
